Consider 23 compounds from patent publication US20230101747A1 (Schrödinger, Inc., priority 2019, published 2023).

For one test, the target named is T1, Full length human CDC7 protein co-expressed with DBF4 (Homo sapiens, UniProt O00311).
T1 construct: Full length human CDC7 protein co-expressed with DBF4; purchased SignalChem (China)
T1 sequence (O00311 whole entry): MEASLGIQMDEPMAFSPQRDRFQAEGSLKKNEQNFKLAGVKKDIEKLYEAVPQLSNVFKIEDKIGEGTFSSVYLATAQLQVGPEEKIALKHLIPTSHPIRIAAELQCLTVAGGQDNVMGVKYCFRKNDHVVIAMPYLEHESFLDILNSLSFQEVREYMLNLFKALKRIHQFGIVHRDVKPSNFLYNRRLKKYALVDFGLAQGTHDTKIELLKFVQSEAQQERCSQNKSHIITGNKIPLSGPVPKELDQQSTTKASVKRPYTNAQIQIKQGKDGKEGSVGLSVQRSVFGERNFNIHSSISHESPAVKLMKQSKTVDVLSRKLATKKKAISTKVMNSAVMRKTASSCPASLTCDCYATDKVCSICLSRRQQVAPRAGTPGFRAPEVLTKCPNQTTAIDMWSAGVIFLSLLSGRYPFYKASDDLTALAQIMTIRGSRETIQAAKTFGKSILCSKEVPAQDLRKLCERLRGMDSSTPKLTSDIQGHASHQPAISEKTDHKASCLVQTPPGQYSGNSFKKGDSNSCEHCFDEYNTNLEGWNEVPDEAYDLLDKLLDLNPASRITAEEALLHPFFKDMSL
T1 sequence (Q9UBU7 whole entry partner): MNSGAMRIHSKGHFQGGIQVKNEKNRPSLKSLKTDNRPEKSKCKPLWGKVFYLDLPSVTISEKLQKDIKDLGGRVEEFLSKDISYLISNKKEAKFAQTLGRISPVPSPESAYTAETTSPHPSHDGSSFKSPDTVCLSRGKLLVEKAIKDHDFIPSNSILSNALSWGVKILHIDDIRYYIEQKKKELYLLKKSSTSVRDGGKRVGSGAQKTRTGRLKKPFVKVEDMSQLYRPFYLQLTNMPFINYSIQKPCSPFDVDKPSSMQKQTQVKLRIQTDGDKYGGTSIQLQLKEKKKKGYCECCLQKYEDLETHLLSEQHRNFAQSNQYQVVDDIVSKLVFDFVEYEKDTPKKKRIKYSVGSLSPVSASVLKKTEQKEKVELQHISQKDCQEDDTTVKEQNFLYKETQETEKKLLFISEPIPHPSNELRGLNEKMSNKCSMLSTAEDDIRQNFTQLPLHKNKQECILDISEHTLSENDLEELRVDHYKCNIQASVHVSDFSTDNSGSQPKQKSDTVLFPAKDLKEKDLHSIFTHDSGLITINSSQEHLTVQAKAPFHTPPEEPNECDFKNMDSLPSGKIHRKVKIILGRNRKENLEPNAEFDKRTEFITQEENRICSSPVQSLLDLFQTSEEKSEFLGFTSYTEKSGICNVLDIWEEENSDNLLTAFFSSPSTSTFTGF
Nature of the test: CDC7 kinase biochemical assay (ADP-Glo, PDKtide substrate). Particulars: 0.1 nM CDC7/DBF4, 1 uM ATP, 10 uM PDKtide, 4 h; read-out: CDC7 ADP-Glo PDKtide IC50. On the procedure:
CDC7 Kinase Biochemical Assay Protocol:
Full length human CDC7 protein co-expressed with DBF4 was purchased from SignalChem (China). CDC7 kinase activity was determined with PDKtide (SignalChem) as a substrate and by measuring ADP production using the ADP-Glo™ Kinase Assay kit (Promega) following the manufacturers instructions. The kinase reaction was performed using the following conditions: Buffer: 40 mM Tris pH 7.5, 20 mM MgCl2, 0.1 mg/ml BSA and 50 uM DTT. Final reaction mix contained 0.1 nM CDC7/DBF4, 1 uM ATP and 10 uM PDKtide. The kinase reaction time was 4 h. The ADP-Glo signal was measured using an EnVision plate reader (PerkinELmer).
Percent inhibition of CDC7 kinase activity was calculated based on the following formula: […]
SSample: the signal of compounds SHigh ctrl: the signal of high control (DMSO) SLow Ctrl: the signal of low control (positive control CDC7 inhibitor)
In the case of `Cc1ccnn1C[C@H]1CN2CCOc3c(-c4cn[nH]c4)sc(c32)C(=O)N1` [Compound 44, (R)-7-((5-methyl-1H-pyrazol-1-yl)methyl)-2-(1H-pyrazol-4-yl)-4,5,7,8-tetrahydro-3-oxa-1-thia-5a,8-diazabenzo[cd]azulen-9(6H)-one], the IC50 (usually the concentration at which inhibition is half-maximal) is under 1 nM.

Turning to `O=C1NCCN2c3c1sc(-c1cn[nH]c1)c3OC[C@H]2CNC(=O)C1CCC1` [Compound 58, (R)—N-((9-oxo-2-(1H-pyrazol-4-yl)-4,5,6,7,8,9-hexahydro-3-oxa-1-thia-5a,8-diazabenzo[cd]azulen-5-yl)methyl)cyclobutanecarboxamide], the 50% inhibitory concentration (IC50) was under 1 nM.

Take `O=C1N[C@H](C2CCCCO2)CN2CC(F)(F)Cc3c(-c4cn[nH]c4)sc1c32` (single isomer, unassigned) [Compound 137]: the 50% inhibitory concentration (IC50) was over 10 nM.

Turning to `Cc1ccn(C[C@H]2CN3CCOc4c(-c5cn[nH]c5)sc(c43)C(=O)N2)n1` [Compound 43, (R)-7-((3-methyl-1H-pyrazol-1-yl)methyl)-2-(1H-pyrazol-4-yl)-4,5,7,8-tetrahydro-3-oxa-1-thia-5a,8-diazabenzo[cd]azulen-9(6H)-one], the IC50 was under 1 nM.

With `CC1(C)NC(=O)c2sc(-c3c[nH]c4ncncc34)c3c2N1CCO3` [Compound 4, 6,6-dimethyl-2-(7H-pyrrolo[2,3-d]pyrimidin-5-yl)-4,5,6,7-tetrahydro-8H-3-oxa-1-thia-5a,7-diazaacenaphthylen-8-one], the IC50 fell in the range of 1 to 10 nM.

With `N#CC[C@@H]1CNC(=O)c2sc(-c3cn[nH]c3)c3c2N1CCO3` [Compound 59, (R)-2-(9-oxo-2-(1H-pyrazol-4-yl)-4,5,6,7,8,9-hexahydro-3-oxa-1-thia-5a,8-diazabenzo[cd]azulen-6-yl)acetonitrile], the IC50 was under 1 nM.

Turning to `CC(C)(O)C[C@H]1CN2CC(F)(F)Oc3c(-c4cn[nH]c4)sc(c32)C(=O)N1` [Compound 116, (S)-4,4-difluoro-7-(2-hydroxy-2-methylpropyl)-2-(1H-pyrazol-4-yl)-4,5,7,8-tetrahydro-3-oxa-1-thia-5a,8-diazabenzo[cd]azulen-9(6H)-one], the IC50 is under 1 nM.

`O=C1NC(C2CC(F)(F)C2)CN2CC(F)(F)Cc3c(-c4cn[nH]c4)sc1c32` (single isomer, unassigned) [Compound 114, (R or S)-7-(3,3-difluorocyclobutyl)-4,4-difluoro-2-(1H-pyrazol-4-yl)-4,5,7,8-tetrahydro-3H-1-thia-5a,8-diazabenzo[cd]azulen-9(6H)-one]: the IC50 is under 1 nM.

In the case of `O=C1N[C@@H](C2CCC2)[C@H](CO)N2CCOc3c(-c4cn[nH]c4)sc1c32` [Compound 92, (9R,10S)-10-cyclobutyl-9-(hydroxymethyl)-3-(1H-pyrazol-4-yl)-5-oxa-2-thia-8,11-diazatricyclo[6.4.1.0^4,13]trideca-1(13),3-dien-12-one], the IC50 was under 1 nM.

Take `O=C1NC(C2CC(F)(F)C2)CN2CCOc3c(-c4cn[nH]c4)sc1c32` (single isomer, unassigned) [Compound 111, (R or S)-7-(3,3-difluorocyclobutyl)-2-(1H-pyrazol-4-yl)-4,5,7,8-tetrahydro-3-oxa-1-thia-5a,8-diazabenzo[cd]azulen-9(6H)-one]: the IC50 is under 1 nM.

As for `COC[C@@H]1CNC(=O)c2sc(-c3cn[nH]c3)c3c2N1CC(F)(F)O3` [Compound 133, (S)-4,4-difluoro-6-(methoxymethyl)-2-(1H-pyrazol-4-yl)-4,5,7,8-tetrahydro-3-oxa-1-thia-5a,8-diazabenzo[cd]azulen-9(6H)-one], the IC50 was under 1 nM.

In the case of `O=C1NC[C@H](CN2CCC2)N2CCCc3c(-c4cn[nH]c4)sc1c32` [Compound 94, (R)-6-(azetidin-1-ylmethyl)-2-(1H-pyrazol-4-yl)-4,5,7,8-tetrahydro-3H-1-thia-5a,8-diazabenzo[cd]azulen-9(6H)-one], the IC50 lay in the range of 1 to 10 nM.

As to `O=C1NC[C@@H](CC2(O)CC2)N2CCCc3c(-c4cn[nH]c4)sc1c32` [Compound 89, (9R)-9-[(1-hydroxycyclopropyl)methyl]-3-(1H-pyrazol-4-yl)-2-thia-8,11-diazatricyclo [6.4.1.0^4,13]trideca-1(13),3-dien-12-one], the IC50 was under 1 nM.

For the compound `Cc1cnn(C[C@@H]2CNC(=O)c3sc(-c4cn[nH]c4)c4c3N2CCO4)c1` [Compound 63, (S)-6-((4-methyl-1H-pyrazol-1-yl)methyl)-2-(1H-pyrazol-4-yl)-4,5,7,8-tetrahydro-3-oxa-1-thia-5a,8-diazabenzo[cd]azulen-9(6H)-one], the IC50 fell in the range of 1 to 10 nM.

Take `O=C1N[C@H](CN2CCOCC2)CN2CC(F)(F)Cc3c(-c4cn[nH]c4)sc1c32` [Compound 134, (R)-4,4-difluoro-7-(morpholinomethyl)-2-(1H-pyrazol-4-yl)-4,5,7,8-tetrahydro-3H-1-thia-5a,8-diazabenzo[cd]azulen-9(6H)-one]: the IC50 lay in the range of 1 to 10 nM.

On to `CC1(C)NC(=O)c2sc(-c3cn[nH]c3)c3c2N1CCO3` [Compound 12, 6,6-dimethyl-2-(1H-pyrazol-4-yl)-4,5,6,7-tetrahydro-8H-3-oxa-1-thia-5a,7-diazaacenaphthylen-8-one], for which the half-inhibitory concentration (IC50) is under 1 nM.

On to `CC(C)(O)C[C@H]1CN2CC(F)(F)Cc3c(-c4cn[nH]c4)sc(c32)C(=O)N1` [Compound 132, (S)-4,4-difluoro-7-(2-hydroxy-2-methylpropyl)-2-(1H-pyrazol-4-yl)-4,5,7,8-tetrahydro-3H-1-thia-5a,8-diazabenzo[cd]azulen-9(6H)-one], for which the IC50 was under 1 nM.

Turning to `O=C1NC(C2CC(F)(F)C2)CN2CC(F)Cc3c(-c4cn[nH]c4)sc1c32` (single isomer, unassigned) [Compound 130, 7-(3,3-difluorocyclobutyl)-4-fluoro-2-(1H-pyrazol-4-yl)-4,5,7,8-tetrahydro-3H-1-thia-5a,8-diazabenzo[cd]azulen-9(6H)-one], the 50% inhibitory concentration (IC50) was under 1 nM.

For `CC1(C)NC(=O)c2sc(-c3ccnc4ccoc34)c3c2N1CCO3` [Compound 7, 2-(furo[3,2-b]pyridin-7-yl)-6,6-dimethyl-4,5,6,7-tetrahydro-8H-3-oxa-1-thia-5a,7-diazaacenaphthylen-8-one], the half-inhibitory concentration (IC50) is over 10 nM.

`O=C1NC(C2CC(F)(F)C2)CN2CC(F)Cc3c(-c4cn[nH]c4)sc1c32` (single isomer, unassigned) [Compound 127, 7-(3,3-difluorocyclobutyl)-4-fluoro-2-(1H-pyrazol-4-yl)-4,5,7,8-tetrahydro-3H-1-thia-5a,8-diazabenzo[cd]azulen-9(6H)-one]: the IC50 is under 1 nM.

`Cc1ccn(C[C@@H]2CNC(=O)c3sc(-c4cn[nH]c4)c4c3N2CCO4)n1` [Compound 61, (S)-6-((3-methyl-1H-pyrazol-1-yl)methyl)-2-(1H-pyrazol-4-yl)-4,5,7,8-tetrahydro-3-oxa-1-thia-5a,8-diazabenzo[cd]azulen-9(6H)-one]: the IC50 was under 1 nM.

The test is the same for the next values; noted with them: CDC7 ADP-Glo PDKtide IC50, 0.1 nM CDC7/DBF4, 1 uM ATP, 10 uM PDKtide, 4 h.
For the compound `O=C1N[C@H](C2CCC2)CN2C(=O)COc3c(-c4cn[nH]c4)sc1c32` [Compound 21, (R)-7-cyclobutyl-2-(1H-pyrazol-4-yl)-7,8-dihydro-3-oxa-1-thia-5a,8-diazabenzo[cd]azulene-5,9(4H,6H)-dione], the IC50 was 1 to 10 nM.

For `O=C1N[C@@H](C2CCC2)C(=O)N2CCOc3c(-c4cn[nH]c4)sc1c32` [Compound 23, (S)-7-cyclobutyl-2-(1H-pyrazol-4-yl)-4,5,7,8-tetrahydro-3-oxa-1-thia-5a,8-diazabenzo[cd] azulene-6,9-dione], the IC50 is over 10 nM.
